The results in this text go back to patent publication US7022708B2, “4-piperazinyl benzenesulfonyl indoles and uses thereof” (Roche Palo Alto LLC, priority 2002, dated 2006).

Broadly, the melting point is the temperature of the solid-liquid transition. As for `O=S(=O)(c1ccc(N2CCNCC2)cc1)n1ccc2cc(F)ccc21` [Compound 1, 5-Fluoro-1-(4-piperazin-1-yl-benzenesulfonyl)-1H-indole], the melting point lay in the range of 77 to 78 °C.

With `O=S(=O)(c1ccc(N2CCNCC2)cc1)c1cc2ccccc2[nH]1` [Compound 39, 2-(4-Piperazin-1-yl-benzenesulfonyl)-1H-indole], the melting point was in the range of 246 to 248.5 °C.
